One series deals with Acetylcholinesterase (Electrophorus electricus, UniProt O42275). The series is described as follows: Inhibition of electric eel AChE using acetylthiocholine as substrate preincubated for 5 mins followed by substrate addition measured after 20 mins by Ellman's method. On the technique in general: Ellman's reagent forms a yellow product with free thiols.
A further series concerns the target Cholinesterase (Equus caballus, UniProt P81908). Briefly: Inhibition of equine serum BuChE using butyrylthiocholine as substrate preincubated for 5 mins followed by substrate addition measured after 20 mins by Ellman's method.
For series [1], the target named is T1, Amine oxidase [flavin-containing] B (Rattus norvegicus, UniProt P19643).
T1 sequence (P19643 whole entry): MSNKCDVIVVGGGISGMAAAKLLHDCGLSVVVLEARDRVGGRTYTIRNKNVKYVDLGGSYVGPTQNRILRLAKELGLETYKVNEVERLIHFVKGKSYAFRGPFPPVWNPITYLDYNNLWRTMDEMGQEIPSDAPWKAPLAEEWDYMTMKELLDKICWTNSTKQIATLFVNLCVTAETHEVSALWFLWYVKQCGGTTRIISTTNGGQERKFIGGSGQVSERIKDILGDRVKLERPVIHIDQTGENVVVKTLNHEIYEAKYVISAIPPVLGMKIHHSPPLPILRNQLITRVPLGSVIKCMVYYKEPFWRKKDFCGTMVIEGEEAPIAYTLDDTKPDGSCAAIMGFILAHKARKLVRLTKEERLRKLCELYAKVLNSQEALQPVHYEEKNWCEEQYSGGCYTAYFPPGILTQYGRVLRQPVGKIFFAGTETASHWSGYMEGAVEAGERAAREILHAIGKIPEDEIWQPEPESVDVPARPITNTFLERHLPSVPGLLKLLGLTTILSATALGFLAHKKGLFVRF
Briefly: Inhibition of MAO-B in Wistar rat liver using 4-trifluoromethyl benzylamine as substrate preincubated for 20 mins followed by substrate addition measured after 90 mins by microplate reader assay. The class given is tissue-based.

Series [2] can be described thus: Antioxidant activity assessed as reduction of colourless Fe3+-TPTZ complex to coloured Fe2+-TPTZ complex measured after 5 mins by FRAP assay. The class given is functional.
Series [3] has as its target Acetylcholinesterase (Electrophorus electricus) (UniProt O42275). Briefly: Mixed-type inhibition of electric eel AChE at 0.5 to 50 nM using varying level of acetylthiocholine as substrate preincubated for 5 mins followed by substrate addition measured after 20 mins by Ellman's method.
In series [4] the target is T1, Amine oxidase [flavin-containing] B. Briefly: Non-competitive inhibition of MAO-B extracted from Wistar rat liver at 5 to 500 uM using varying level of 4-trifluoromethyl benzylamine as substrate preincubated for 20 mins followed by substrate addition measured after 90 mins by microplate reader assay. The note with it: 1.5 h.

Calls of active or inactive are those of the source. The rule behind the calls is not given here. A value given as a limit tells only on which side of the number the result lay.

Chain of Cholinesterase (P81908 whole entry): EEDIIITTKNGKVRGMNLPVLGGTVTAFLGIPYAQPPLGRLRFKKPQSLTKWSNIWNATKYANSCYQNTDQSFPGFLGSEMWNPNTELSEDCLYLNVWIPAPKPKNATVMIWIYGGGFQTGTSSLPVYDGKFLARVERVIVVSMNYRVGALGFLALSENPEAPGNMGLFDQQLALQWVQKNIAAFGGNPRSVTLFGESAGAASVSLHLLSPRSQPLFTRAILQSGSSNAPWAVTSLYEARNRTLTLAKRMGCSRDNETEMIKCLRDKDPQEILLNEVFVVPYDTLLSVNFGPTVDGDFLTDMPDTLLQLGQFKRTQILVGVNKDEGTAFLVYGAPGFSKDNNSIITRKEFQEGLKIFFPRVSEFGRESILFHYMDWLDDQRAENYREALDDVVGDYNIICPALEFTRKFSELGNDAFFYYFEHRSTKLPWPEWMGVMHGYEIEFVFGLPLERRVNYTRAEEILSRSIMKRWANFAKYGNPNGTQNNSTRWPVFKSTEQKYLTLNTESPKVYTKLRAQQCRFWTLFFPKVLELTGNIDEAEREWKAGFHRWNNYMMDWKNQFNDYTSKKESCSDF
Chain of Acetylcholinesterase (O42275 whole entry): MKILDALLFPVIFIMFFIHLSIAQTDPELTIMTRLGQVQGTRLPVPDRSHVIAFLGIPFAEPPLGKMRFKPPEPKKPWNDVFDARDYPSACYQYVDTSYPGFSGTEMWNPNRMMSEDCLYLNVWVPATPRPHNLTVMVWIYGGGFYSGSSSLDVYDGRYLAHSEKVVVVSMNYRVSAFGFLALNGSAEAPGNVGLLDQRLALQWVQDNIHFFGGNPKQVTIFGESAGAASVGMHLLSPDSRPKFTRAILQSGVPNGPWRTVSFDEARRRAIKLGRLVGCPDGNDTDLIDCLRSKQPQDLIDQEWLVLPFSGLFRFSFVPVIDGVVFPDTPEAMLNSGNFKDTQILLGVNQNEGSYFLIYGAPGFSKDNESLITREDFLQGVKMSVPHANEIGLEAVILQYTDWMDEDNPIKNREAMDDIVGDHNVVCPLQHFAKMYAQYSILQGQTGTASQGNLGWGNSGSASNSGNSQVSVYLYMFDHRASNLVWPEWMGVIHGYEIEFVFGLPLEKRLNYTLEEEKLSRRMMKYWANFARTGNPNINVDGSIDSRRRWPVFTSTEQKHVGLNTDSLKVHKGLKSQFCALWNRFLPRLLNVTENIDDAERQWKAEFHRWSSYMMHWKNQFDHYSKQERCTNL
Chain of Acetylcholinesterase (Electrophorus electricus) (O42275 24-633 limits assumed): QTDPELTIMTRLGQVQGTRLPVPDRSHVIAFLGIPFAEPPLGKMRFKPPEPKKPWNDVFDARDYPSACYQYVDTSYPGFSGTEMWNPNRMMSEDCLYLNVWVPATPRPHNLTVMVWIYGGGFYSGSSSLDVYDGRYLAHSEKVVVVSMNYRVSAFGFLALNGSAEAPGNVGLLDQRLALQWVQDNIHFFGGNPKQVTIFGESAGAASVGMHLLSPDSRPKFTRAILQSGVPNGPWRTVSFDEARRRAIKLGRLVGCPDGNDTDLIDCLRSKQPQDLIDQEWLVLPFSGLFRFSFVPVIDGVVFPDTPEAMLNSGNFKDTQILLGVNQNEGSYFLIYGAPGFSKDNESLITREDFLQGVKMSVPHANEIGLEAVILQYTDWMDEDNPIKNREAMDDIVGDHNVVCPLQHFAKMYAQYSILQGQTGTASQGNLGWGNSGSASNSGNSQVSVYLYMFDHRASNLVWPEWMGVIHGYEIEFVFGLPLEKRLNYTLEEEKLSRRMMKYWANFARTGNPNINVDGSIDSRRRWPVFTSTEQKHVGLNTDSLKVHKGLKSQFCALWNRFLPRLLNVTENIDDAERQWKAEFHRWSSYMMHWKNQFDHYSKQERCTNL

For `COc1cc(-c2cc(=O)oc3c(O)c(O)ccc23)cc(OC)c1OC`, the IC50 on Acetylcholinesterase is 0.299 µM; against Cholinesterase, greater than 300 µM; in series [1], greater than 300 µM. Moreover, in series [2], the Activity was 9.65 mmol/g.
`COc1ccc(C2CC(=O)Oc3c(O)cc(O)cc32)cc1OC` (stereo not drawn): the IC50 against Acetylcholinesterase is greater than 50 µM; on Cholinesterase, greater than 300 µM; in series [1], 26.6 µM. Also, in series [2], the Activity worked out at 4.76 mmol/g.
For `COc1ccc(C2CC(=O)Oc3c2ccc(O)c3O)cc1` (stereo not drawn), in that order: 21.6 µM, 149 µM, 2.18 µM and 9.17 mmol/g.
Consider `O=c1cc(-c2cc(O)c(O)c(O)c2)c2ccc(O)c(O)c2o1`, for which the 50% inhibitory concentration (IC50) against Acetylcholinesterase was 0.025 µM; at Cholinesterase it was 106 µM; in series [1], 1.99 µM. Also, in series [3], the inhibition result was “Active”. Further, the Activity in series [2] is 10.1 mmol/g.
On to `COc1ccc(C2CC(=O)Oc3cc(O)cc(O)c32)cc1OC` (stereo not drawn), for which the IC50 is greater than 50 µM against Acetylcholinesterase, greater than 300 µM against Cholinesterase and 141 µM in series [1]. Besides, the Activity in series [2] amounted to 1.5 mmol/g.
Take `COc1cc(C2CC(=O)Oc3cc(O)cc(O)c32)ccc1O` (stereo not drawn): the results for the concentration for half-maximal inhibition (IC50) (against Acetylcholinesterase; against Cholinesterase; in series [1]) were greater than 50 µM, greater than 300 µM and 55.9 µM, respectively. In addition, in series [2], the Activity was 9.01 mmol/g.
For `COc1cc(C2CC(=O)Oc3cc(O)ccc32)ccc1O` (stereo not drawn), in that order: greater than 50 µM, greater than 300 µM, 82.5 µM and 9.38 mmol/g.
For `O=C1CC(c2ccc(O)cc2)c2c(O)cc(O)cc2O1` (stereo not drawn), in that order: greater than 50 µM, greater than 300 µM, 19.4 µM and 2.26 mmol/g.
For `O=C1CC(c2ccc(O)c(O)c2)c2ccc(O)c(O)c2O1` (stereo not drawn), in that order: 0.283 µM, 72.5 µM, 0.43 µM and 9.6 mmol/g.
In the case of `COc1ccc(C2CC(=O)Oc3ccc(O)cc32)cc1OC` (stereo not drawn), the IC50 against Acetylcholinesterase is greater than 50 µM; on Cholinesterase it was greater than 300 µM; in series [1], greater than 300 µM. For the same compound, the Activity in series [2] is 0.922 mmol/g.
On to `O=c1cc(-c2ccc(O)c(O)c2)c2cc(O)cc(O)c2o1`, for which the IC50 against Acetylcholinesterase amounted to 7 µM; at Cholinesterase it was 208 µM; in series [1], 22.2 µM. The Activity in series [2] turned out to be 10.5 mmol/g.
As to `O=C1O[C@H]([C@@H](O)CO)C(O)=C1O`, the Activity in series [2] amounted to 9.87 mmol/g.
As to `COc1ccc(-c2cc(=O)oc3c(O)c(O)ccc23)cc1OC`, the half-maximal inhibitory concentration (IC50) is 0.052 µM against Acetylcholinesterase, greater than 300 µM on Cholinesterase and greater than 300 µM in series [1]. Besides, in series [2], the Activity was determined as 9.89 mmol/g.
On to `COc1ccc(C2CC(=O)Oc3cc(O)cc(O)c32)cc1` (stereo not drawn), for which the IC50 was greater than 50 µM against Acetylcholinesterase, greater than 300 µM at Cholinesterase and 83.7 µM in series [1]. For the same compound, the Activity in series [2] worked out at 1.06 mmol/g.
For `O=c1cc(-c2ccc(O)c(O)c2)c2ccc(O)cc2o1`, in that order: 8.86 µM, greater than 300 µM, greater than 300 µM and 9.71 mmol/g.
For `COc1ccc(-c2cc(=O)oc3cc(O)cc(O)c23)cc1OC`, in that order: 7.92 µM, greater than 300 µM, 104 µM and 1.37 mmol/g.
For `O=c1cc(-c2ccc(O)c(O)c2)c2ccc(O)c(O)c2o1`, in that order: 7.05 µM, 188 µM, 189 µM and 10.5 mmol/g.
As to `COc1ccc(C2CC(=O)Oc3cc(O)ccc32)cc1` (stereo not drawn), the figures for the IC50 (on Acetylcholinesterase; against Cholinesterase; in series [1]) were greater than 50 µM, greater than 300 µM and greater than 300 µM, respectively. Moreover, in series [2], the Activity stood at 0.896 mmol/g.
On to `COc1ccc(C2CC(=O)Oc3c(O)cc(O)cc32)cc1` (stereo not drawn), for which the IC50 against Acetylcholinesterase was greater than 50 µM; on Cholinesterase it was greater than 300 µM; in series [1], 75.4 µM. The Activity in series [2] was found to be 2.85 mmol/g.
`COc1cc(C2CC(=O)Oc3c2ccc(O)c3O)ccc1O` (stereo not drawn): the IC50 stood at 10.9 µM at Acetylcholinesterase, 134 µM at Cholinesterase and 0.257 µM in series [1]. For the same compound, the “inhibition (INH)” value in series [4] was “Active”. The Activity in series [2] came out at 10.1 mmol/g.
With `O=c1cc(-c2ccc(O)cc2)c2ccc(O)c(O)c2o1`, the IC50 at Acetylcholinesterase is 9.45 µM; on Cholinesterase, greater than 300 µM; in series [1], 293 µM. In addition, the Activity in series [2] was found to be 9.89 mmol/g.

The IC50 is the concentration that gives 50% inhibition. Lower therefore signals greater potency.

(Values after ChEMBL document CHEMBL4610034, “Synthesis and biological evaluation of 4-arylcoumarins as potential anti-Alzheimer's disease agents” (Bioorg Med Chem Lett, 2020).)
